Structures are written as SMILES.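 Five compound concentrations were applied to cells in 96-well plates for 48 hours; endpoints were derived by simple linear interpolation of the resulting dose-response curve. GI50: concentration for 50% inhibition of growth. TGI is the concentration that stops growth completely.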

Some test systems named below: MCF7 breast; BT-549 breast; K-562 leukemia; SNB-19 CNS; MDA-N; DU-145 prostate; NCI/ADR-RES ovarian; M14 melanoma; HS 578T breast; T-47D breast; HCT-15 colon; NCI-H23 lung; COLO 205 colon; OVCAR-8 ovarian; SK-MEL-2 melanoma; UACC-257 melanoma; A549 NSCLC.
What all share (experiment): NCI anticancer screen, dose series, 48 h

With `Cc1cn(C2CC(N)C(C(=O)NCC(=O)O)O2)c(=O)[nH]c1=O` (configuration not stated), the TGI in the experiment on MCF7 breast, in the experiment on BT-549 breast, in the experiment on K-562 leukemia, with SNB-19 CNS, in the experiment with MDA-N and with DU-145 prostate was over 100 µM in each case. For the same compound, the TGI in the experiment on NCI/ADR-RES ovarian, in the experiment on M14 melanoma, with HS 578T breast, in the experiment with T-47D breast, in the experiment with HCT-15 colon and with NCI-H23 lung was over 100 µM each time. In the experiment on COLO 205 colon, this compound had a TGI of over 100 µM.
As for `COc1ccc(-c2ccc(-c3ccc(C(=N)N)nc3)s2)cc1Cl`, in the experiment on DU-145 prostate, the GI50 is 1.77 µM and the TGI was found to be 3.15 µM. Moreover, in the experiment with OVCAR-8 ovarian, the GI50 was 2.6 µM and the TGI came out at 7.13 µM.
Turning to `O=S(OC12CC3CC(CC(C3)C1)C2)c1cc(Cl)cc(Cl)c1OCc1ccccc1` (configuration not stated), the TGI in the experiment on SK-MEL-2 melanoma, in the experiment with K-562 leukemia, in the experiment with SNB-19 CNS, with M14 melanoma, with NCI-H23 lung and in the experiment with UACC-257 melanoma was over 100 µM each time.
Regarding `C=CCN1C(=O)/C(=C/c2ccco2)N=C1SC1OC(COC(C)=O)C(OC(C)=O)C(OC(C)=O)C1OC(C)=O` (configuration not stated), the TGI in the experiment with MCF7 breast, in the experiment on SK-MEL-2 melanoma, in the experiment on BT-549 breast, in the experiment on K-562 leukemia, in the experiment on DU-145 prostate and with NCI/ADR-RES ovarian was over 100 µM each time. Further, the TGI with HCT-15 colon, with OVCAR-8 ovarian, with NCI-H23 lung, in the experiment on COLO 205 colon and in the experiment on UACC-257 melanoma was over 100 µM in each case.
On to `CC(=O)OCC1OC(OCCCCCCO)C(OC(C)=O)C(OC(C)=O)C1OC(C)=O` (configuration not stated), for which the TGI in the experiment on MCF7 breast, in the experiment on SK-MEL-2 melanoma, in the experiment with BT-549 breast, with K-562 leukemia, in the experiment on SNB-19 CNS and in the experiment with MDA-N was over 100 µM each time. Besides, the TGI in the experiment with NCI/ADR-RES ovarian, in the experiment with M14 melanoma, with HS 578T breast, with A549 NSCLC, in the experiment on HCT-15 colon and in the experiment on OVCAR-8 ovarian was over 100 µM throughout. In addition, the TGI in the experiment with NCI-H23 lung and in the experiment with UACC-257 melanoma was over 100 µM in each case.
For `O=[N+]([O-])c1ccccc1S(=O)(=O)c1ccccc1`, the TGI with SK-MEL-2 melanoma, in the experiment on K-562 leukemia, with M14 melanoma, in the experiment with A549 NSCLC, in the experiment on HCT-15 colon and with OVCAR-8 ovarian was over 100 µM each time. The TGI in the experiment on NCI-H23 lung, in the experiment on COLO 205 colon and in the experiment on UACC-257 melanoma was over 100 µM each time.
On to `Cc1ccc(NC(=O)C(Cc2c[nH]c3ccccc23)NC(=O)Oc2ccccc2)cc1C` (configuration not stated), for which the TGI in the experiment on MCF7 breast, in the experiment on SK-MEL-2 melanoma, in the experiment on BT-549 breast, with K-562 leukemia, in the experiment on SNB-19 CNS and with MDA-N was over 100 µM throughout. The TGI in the experiment with DU-145 prostate, with NCI/ADR-RES ovarian, in the experiment on M14 melanoma, with HS 578T breast, in the experiment with T-47D breast and with A549 NSCLC was over 100 µM throughout. Besides, the TGI in the experiment with HCT-15 colon, with OVCAR-8 ovarian, in the experiment on NCI-H23 lung, in the experiment with COLO 205 colon and in the experiment on UACC-257 melanoma was over 100 µM in each case.
As to `CC1(C)C(=O)c2ccccc2OC1N1CCN(C2Oc3ccccc3C(=O)C2(C)C)CC1` (configuration not stated), the TGI in the experiment with MCF7 breast, in the experiment on BT-549 breast, in the experiment with K-562 leukemia, with SNB-19 CNS, with MDA-N and in the experiment with DU-145 prostate was over 100 µM in each case. Also, the TGI in the experiment with NCI/ADR-RES ovarian, with M14 melanoma, with HS 578T breast, in the experiment on T-47D breast, in the experiment on HCT-15 colon and in the experiment with NCI-H23 lung was over 100 µM in each case. The TGI in the experiment on COLO 205 colon was over 100 µM.

The values above are taken from PubChem BioAssay (NCI).
